Target: T1, CFTR (Homo sapiens, UniProt P13569)
T1 construct: host or cells: T84 human colonic cells
Test: T84 assay (FLIPR membrane potential dye, forskolin/IBMX-stimulated CFTR channel activity)
Assay type: cell-based
Conditions: average of at least 2 runs unless annotated n = 1
Procedure: Human colonic T84 cells are acquired from the European Collection of Cell Cultures (ECACC) and are grown in standard culture conditions as described by the supplier. On the day before assay 25,000 T84 cells per well are plated into standard black walled, clear bottom 384-well assay plates in standard growth medium consisting of DMEM:F12 with 10% FBS and incubated overnight. On the day of the assay the plates are washed using a standard assay buffer (HBSS with 10 mM Hepes) and incubated for 15 minutes in serum free cell culture medium before the addition of a commercially available membrane potential sensitive fluorescent dye (FLIPR Red membrane potential dye, Molecular Devices Corporation). T84 cells are incubated with the FLIPR Red membrane potential dye for 45 minutes in the presence and absence of test compound before being transferred to a commercially available fluorescence imaging plate reader (FLIPR384, Molecular Devices Corporation). Fluorescence levels are monitored continuously every second for 150 seconds; after an initial 10 second baseline, CFTR channel activity is stimulated through the addition of 10 μM forskolin in the presence of 100 μM of the phosphodiesterase inhibitor iso-butyl-methylxanthine (IBMX). Addition of the forskolin leads to the activation of intracellular adenylyl cylase 1, elevating cAMP levels and results in the phosphorylation and opening of CFTR anion channels. CFTR channel opening causes chloride ion efflux and subsequent depolarization of the cells, which is measured by an increase in fluorescence. CFTR inhibitor compounds prevent cell depolarization and the associated increase in fluorescence.
Unless otherwise indicated, the IC50 values are reported as an average of at least 2 runs. Where only 1 run is used, it is indicated by the annotation “n=1.”

T1 sequence (P13569 whole entry): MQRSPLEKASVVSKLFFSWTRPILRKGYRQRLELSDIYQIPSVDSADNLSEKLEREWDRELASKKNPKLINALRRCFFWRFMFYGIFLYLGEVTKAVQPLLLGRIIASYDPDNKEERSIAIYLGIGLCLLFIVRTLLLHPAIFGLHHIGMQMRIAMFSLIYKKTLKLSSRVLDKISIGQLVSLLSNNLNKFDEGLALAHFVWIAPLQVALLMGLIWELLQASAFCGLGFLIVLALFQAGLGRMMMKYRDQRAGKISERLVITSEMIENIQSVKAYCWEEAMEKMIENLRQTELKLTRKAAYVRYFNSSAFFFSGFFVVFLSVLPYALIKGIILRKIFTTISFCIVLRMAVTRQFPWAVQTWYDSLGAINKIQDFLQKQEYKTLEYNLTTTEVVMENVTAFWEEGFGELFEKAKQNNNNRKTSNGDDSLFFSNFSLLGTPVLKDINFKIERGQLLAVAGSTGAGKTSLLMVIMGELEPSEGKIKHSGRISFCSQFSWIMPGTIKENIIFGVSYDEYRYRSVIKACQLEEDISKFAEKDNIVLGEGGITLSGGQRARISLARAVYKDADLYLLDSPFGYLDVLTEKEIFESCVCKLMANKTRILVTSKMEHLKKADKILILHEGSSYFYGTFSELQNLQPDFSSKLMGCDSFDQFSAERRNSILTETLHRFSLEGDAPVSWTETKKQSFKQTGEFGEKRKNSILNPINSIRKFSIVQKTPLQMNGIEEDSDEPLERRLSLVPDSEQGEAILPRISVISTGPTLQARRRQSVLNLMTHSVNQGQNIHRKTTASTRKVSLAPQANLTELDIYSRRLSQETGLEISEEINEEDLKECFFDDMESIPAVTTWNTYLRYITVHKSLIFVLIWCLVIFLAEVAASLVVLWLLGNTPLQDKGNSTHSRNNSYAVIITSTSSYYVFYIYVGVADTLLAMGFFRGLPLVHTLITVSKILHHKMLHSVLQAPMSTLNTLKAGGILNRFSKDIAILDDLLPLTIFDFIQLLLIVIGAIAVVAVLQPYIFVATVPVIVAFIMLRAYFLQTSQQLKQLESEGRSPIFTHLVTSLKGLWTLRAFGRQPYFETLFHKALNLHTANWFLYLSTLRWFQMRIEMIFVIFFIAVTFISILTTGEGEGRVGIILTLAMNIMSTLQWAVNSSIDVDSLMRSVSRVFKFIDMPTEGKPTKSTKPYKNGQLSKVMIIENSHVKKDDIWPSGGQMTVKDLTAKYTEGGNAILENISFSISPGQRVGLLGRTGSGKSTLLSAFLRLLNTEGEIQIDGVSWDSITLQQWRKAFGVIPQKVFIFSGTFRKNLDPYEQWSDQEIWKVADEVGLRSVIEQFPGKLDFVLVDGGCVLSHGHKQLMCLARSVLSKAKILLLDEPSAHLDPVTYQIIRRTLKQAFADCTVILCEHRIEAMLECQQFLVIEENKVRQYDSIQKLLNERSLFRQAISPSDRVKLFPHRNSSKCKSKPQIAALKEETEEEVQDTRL

SMILES	IC50
O=S(=O)(Nc1cccc(-c2ccc(OCCc3ccc(Cl)cc3)nn2)c1)C(F)(F)F [Compound 2, N-(3-(6-(4-chlorophenethoxy)pyridazin-3-yl)phenyl)-1,1,1-trifluoromethanesulfonamide]	5.79 µM
O=S(=O)(Nc1ccc(-c2ccc(OCCc3ccc(Cl)cc3)nn2)cc1)C(F)(F)F [Compound 22, N-(4-(6-(4-chlorophenethoxy)pyridazin-3-yl)phenyl)-1,1,1-trifluoromethanesulfonamide]	2.84 µM
CC(C)CS(=O)(=O)Nc1ccc(-c2ccc(OCCc3ccc(Cl)cc3)nn2)cc1 [Compound 24, N-(4-(6-(4-chlorophenethoxy)pyridazin-3-yl)phenyl)-2-methylpropane-1-sulfonamide]	15.4 µM
CCN(Cc1ccccc1)c1ccc(-c2cccc(N3CCCS3(=O)=O)c2)nn1 [Compound 26, Benzyl-{6-[3-(1,1-dioxo-isothiazolidin-2-yl)-phenyl]-pyridazin-3-yl}-ethylamine]	3.77 µM
O=C(NS(=O)(=O)c1ccc(F)c(F)c1)c1cccc(-c2ccc(OCCc3ccc(Cl)cc3)nn2)c1 [Compound 15, 3-(6-(4-chlorophenethoxy)pyridazin-3-yl)-N-(3,4-difluorophenylsulfonyl)benzamide]	27.7 µM
CCN(Cc1ccccc1)c1ccc(-c2cccc(NS(C)(=O)=O)c2)nn1 [Compound 7, N-(3-(6-(benzyl(ethyl)amino)pyridazin-3-yl)phenyl)methanesulfonamide]	2.23 µM
Cc1ccc(S(=O)(=O)NC(=O)c2ccc(-c3ccc(OCCc4ccc(Cl)cc4)nn3)cc2)cc1 [Compound 23, 4-(6-(4-chlorophenethoxy)pyridazin-3-yl)-N-tosylbenzamide]	3.03 µM
O=C(NS(=O)(=O)c1ccc(F)cc1F)c1cccc(-c2ccc(OCCc3ccc(Cl)cc3)nn2)c1 [Compound 21, 3-(6-(4-chlorophenethoxy)pyridazin-3-yl)-N-(2,4-difluorophenylsulfonyl)benzamide]	18.7 µM
CC(C)(C)c1ccc(S(=O)(=O)NC(=O)c2cccc(-c3ccc(OCCc4ccc(Cl)cc4)nn3)c2)cc1 [Compound 14, N-(4-tert-butylphenylsulfonyl)-3-(6-(4-chlorophenethoxy)pyridazin-3-yl)benzamide]	20.1 µM
O=C(NS(=O)(=O)Cc1ccccc1)c1cccc(-c2ccc(OCCc3ccc(Cl)cc3)nn2)c1 [Compound 17, N-(benzylsulfonyl)-3-(6-(4-chlorophenethoxy)pyridazin-3-yl)benzamide]	6.05 µM
CCS(=O)(=O)NC(=O)c1cccc(-c2ccc(OCCc3ccc(Cl)cc3)nn2)c1 [Compound 13, 3-(6-(4-chlorophenethoxy)pyridazin-3-yl)-N-(ethylsulfonyl)benzamide]	18.7 µM
CCN(Cc1ccccc1)c1ccc(-c2cccc(NS(=O)(=O)c3ccc(C)cc3)c2)nn1 [Compound 8, N-(3-(6-(benzyl(ethyl)amino)pyridazin-3-yl)phenyl)-4-methylbenzenesulfonamide]	0.05 µM
CS(=O)(=O)Nc1cccc(-c2ccc(OCCc3ccc(Cl)cc3)nn2)c1 [Compound 1, N-(3-(6-(4-chlorophenethoxy)pyridazin-3-yl)phenyl)methanesulfonamide]	9.79 µM
CCN(Cc1ccccc1)c1ccc(-c2cccc(NS(=O)(=O)C(F)(F)F)c2)nn1 [Compound 10, N-(3-(6-(benzyl(ethyl)amino)pyridazin-3-yl)phenyl)-1,1,1-trifluoromethanesulfonamide]	7.92 µM
CC(=O)Nc1ccc(S(=O)(=O)Nc2cccc(-c3ccc(OCCc4ccc(Cl)cc4)nn3)c2)cc1 [Compound 5, N-(4-(N-(3-(6-(4-chlorophenethoxy)pyridazin-3-yl)phenyl)sulfamoyl)phenyl)acetamide]	27.7 µM
O=C(NS(=O)(=O)c1ccc(F)cc1)c1cccc(-c2ccc(OCCc3ccc(Cl)cc3)nn2)c1 [Compound 12, 3-(6-(4-chlorophenethoxy)pyridazin-3-yl)-N-(4-fluorophenylsulfonyl)benzamide]	11.7 µM
CC(C)(C)c1ccc(S(=O)(=O)Nc2cccc(-c3ccc(OCCc4ccc(Cl)cc4)nn3)c2)cc1 [Compound 18, 4-tert-butyl-N-(3-(6-(4-chlorophenethoxy)pyridazin-3-yl)phenyl)benzenesulfonamide]	8.09 µM
CCN(Cc1ccccc1)c1ccc(-c2cccc(NS(=O)(=O)N(C)C)c2)nn1 [Compound 6, N-(3-(6-(benzyl(ethyl)amino)pyridazin-3-yl)phenyl)dimethylaminosulfonamide]	1.4 µM
N#Cc1ccc(S(=O)(=O)Nc2cccc(-c3ccc(OCCc4ccc(Cl)cc4)nn3)c2)cc1 [Compound 3, N-(3-(6-(4-chlorophenethoxy)pyridazin-3-yl)phenyl)-4-cyanobenzenesulfonamide]	17.2 µM
O=S(=O)(CC(F)(F)F)Nc1cccc(-c2ccc(OCCc3ccc(Cl)cc3)nn2)c1 [Compound 20, N-(3-(6-(4-chlorophenethoxy)pyridazin-3-yl)phenyl)-2,2,2-trifluoroethanesulfonamide]	14.8 µM
COc1ccc(S(=O)(=O)NC(=O)c2cccc(-c3ccc(OCCc4ccc(Cl)cc4)nn3)c2)cc1 [Compound 11, 3-(6-(4-chlorophenethoxy)pyridazin-3-yl)-N-(4-methoxyphenylsulfonyl)benzamide]	11.4 µM
O=S(=O)(Nc1cccc(-c2ccc(OCCc3ccc(Cl)cc3)nn2)c1)c1ccc(N2CCOCC2)nc1 [Compound 4, N-(3-(6-(4-chlorophenethoxy)pyridazin-3-yl)phenyl)-6-morpholinopyridine-3-sulfonamide]	5.55 µM
O=C(NS(=O)(=O)c1ccc(F)c(F)c1)c1cccc(-c2ccc(OCCc3ccc(Cl)cc3)nn2)c1 [Compound 19, 3-(6-(4-chlorophenethoxy)pyridazin-3-yl)-N-(3,4-difluorophenylsulfonyl)benzamide]	13.9 µM
Cc1ccc(S(=O)(=O)Nc2cccc(-c3ccc(NCc4ccccc4)nn3)c2)cc1 [Compound 16, N-(3-(6-(benzylamino)pyridazin-3-yl)phenyl)-4-methylbenzenesulfonamide]	2.24 µM
CCN(Cc1ccccc1)c1ccc(-c2cccc(NS(=O)(=O)c3cccc(Br)c3)c2)nn1 [Compound 9, N-(3-(6-(benzyl(ethyl)amino)pyridazin-3-yl)phenyl)-3-bromobenzenesulfonamide]	0.05 µM

Tested on: cholera toxin (CTX) induced net fluid secretion in small intestine loops
Test: not given
Design: species or system mice (CD1 strain)
Conditions: mouse, in vivo

SMILES	closed loop % inhibition
O=S(=O)(Nc1cccc(-c2ccc(OCCc3ccc(Cl)cc3)nn2)c1)C(F)(F)F [Compound 2, N-(3-(6-(4-chlorophenethoxy)pyridazin-3-yl)phenyl)-1,1,1-trifluoromethanesulfonamide]	98.2%
